In patent US9156796B2, “Benzoimidazole-carboxylic acid amide derivatives as APJ receptor modulators” (SANOFI, priority 2013, dated 2015):

molecular target: T1, human apelin receptor (Homo sapiens, UniProt P35414); experiment: Determination of agonism on the human apelin receptor by a calcium fluorescence assay (FLIPR); type: cell-based; details: HEK293 cells stably transfected with human apelin receptor and Giaq protein, Fluo-4 calcium fluorescence, read-out: EC50 (APJ agonism)
T1 construct: expressed in transfected cells
T1 sequence (P35414 1-380): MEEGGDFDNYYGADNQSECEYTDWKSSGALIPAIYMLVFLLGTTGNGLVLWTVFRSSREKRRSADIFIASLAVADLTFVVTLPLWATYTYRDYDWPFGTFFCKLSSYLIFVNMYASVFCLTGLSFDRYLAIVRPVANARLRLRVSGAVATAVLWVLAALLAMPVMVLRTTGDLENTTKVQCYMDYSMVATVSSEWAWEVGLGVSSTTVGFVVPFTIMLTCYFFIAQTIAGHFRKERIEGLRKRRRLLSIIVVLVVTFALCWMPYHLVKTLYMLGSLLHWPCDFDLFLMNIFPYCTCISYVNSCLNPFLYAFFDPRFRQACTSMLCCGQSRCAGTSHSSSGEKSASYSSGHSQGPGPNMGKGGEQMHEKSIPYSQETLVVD
Outline: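 HEK293 cells stably co-expressing human apelin receptor and promiscuous Giaq, loaded 1 h at 37 °C with Fluo-4 (4 μM) in probenecid-containing Hepes buffer, pH 7.4. Compounds, at least 7 concentrations in triplicate, added in FLIPR Tetra; peak calcium fluorescence normalized to 1 μM apelin-13 as 100% to derive EC50.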

SMILES	EC50 [nM]
CCC(CC)n1c(Cc2cccs2)nc2cc(C(=O)N[C@@H](CC(C)C)C(=O)N3CCC(N(CC)Cc4ccccc4)CC3)ccc21 [Example 336, 1-(1-Ethyl-propyl)-2-thiophen-2-ylmethyl-1H-benzoimidazole-5-carboxylic acid {(S)-1-[4-(benzyl-ethyl-amino)-piperidine-1-carbonyl]-3-methyl-butyl}-amide]	1260
CCC(CC)n1c(Cc2cccs2)nc2cc(C(=O)N[C@@H](CC(C)C)C(=O)NC3CCN(CCc4ccccc4)CC3)ccc21 [Example 338, 1-(1-Ethyl-propyl)-2-thiophen-2-ylmethyl-1H-benzoimidazole-5-carboxylic acid [(S)-3-methyl-1-(1-phenethyl-piperidin-4-ylcarbamoyl)-butyl]-amide]	1590
CCC(CC)n1c(Cc2cccs2)nc2cc(C(=O)N[C@@H](CC(C)C)C(=O)NCCCN3CCS(=O)(=O)CC3)ccc21 [Example 342, 1-(1-Ethyl-propyl)-2-thiophen-2-ylmethyl-1H-benzoimidazole-5-carboxylic acid {(S)-1-[3-(1,1-dioxo-1lambda6-thiomorpholin-4-yl)-propylcarbamoyl]-3-methyl-butyl}-amide]	999
CCC(CC)n1c(Cc2cccs2)nc2cc(C(=O)N[C@@H](CC(C)C)C(=O)NC3CCN(CC4CCCCC4)CC3)ccc21 [Example 344, 1-(1-Ethyl-propyl)-2-thiophen-2-ylmethyl-1H-benzoimidazole-5-carboxylic acid [(S)-1-(1-cyclohexylmethyl-piperidin-4-ylcarbamoyl)-3-methyl-butyl]-amide]	1690
CCC(CC)n1c(Cc2cccs2)nc2cc(C(=O)N[C@@H](CC(C)C)C(=O)N3CCC(N(C)Cc4ccccc4)CC3)ccc21 [Example 345, 1-(1-Ethyl-propyl)-2-thiophen-2-ylmethyl-1H-benzoimidazole-5-carboxylic acid {(S)-1-[4-(benzyl-methyl-amino)-piperidine-1-carbonyl]-3-methyl-butyl}-amide]	1670
CCC(CC)n1c(Cc2cccs2)nc2cc(C(=O)N[C@@H](CC(C)C)C(=O)NCCCN3CCC(Cc4ccccc4)CC3)ccc21 [Example 346, 1-(1-Ethyl-propyl)-2-thiophen-2-ylmethyl-1H-benzoimidazole-5-carboxylic acid {(S)-1-[3-(4-benzyl-piperidin-1-yl)-propylcarbamoyl]-3-methyl-butyl}-amide]	1320
CCC(CC)n1c(Cc2cccs2)nc2cc(C(=O)N[C@@H](CC(C)C)C(=O)N3CC4CC3CN4CC(C)C)ccc21 (stereo partly drawn) [Example 348, 1-(1-Ethyl-propyl)-2-thiophen-2-ylmethyl-1H-benzoimidazole-5-carboxylic acid [(S)-1-(5-isobutyl-2,5-diaza-bicyclo[2.2.1]heptane-2-carbonyl)-3-methyl-butyl]-amide]	2660
CCC(CC)n1c(Cc2cccs2)nc2cc(C(=O)N[C@@H](CC(C)C)C(=O)N3CC4CC3CN4CC3CCCC3)ccc21 (stereo partly drawn) [Example 349, 1-(1-Ethyl-propyl)-2-thiophen-2-ylmethyl-1H-benzoimidazole-5-carboxylic acid [(S)-1-(5-cyclopentylmethyl-2,5-diaza-bicyclo[2.2.1]heptane-2-carbonyl)-3-methyl-butyl]-amide]	3040
CCC(CC)n1c(Cc2cccs2)nc2cc(C(=O)N[C@@H](CC(C)C)C(=O)N3CC4CC3CN4Cc3ccc(C(F)(F)F)cc3)ccc21 (stereo partly drawn) [Example 350, 1-(1-Ethyl-propyl)-2-thiophen-2-ylmethyl-1H-benzoimidazole-5-carboxylic acid {(S)-3-methyl-1-[5-(4-trifluoromethyl-benzyl)-2,5-diaza-bicyclo[2.2.1]heptane-2-carbonyl]-butyl}-amide]	29100
CCC(CC)n1c(Cc2cccs2)nc2cc(C(=O)N[C@@H](CC(C)C)C(=O)N3CC4CC3CN4Cc3ccc(OC)cc3)ccc21 (stereo partly drawn) [Example 351, 1-(1-Ethyl-propyl)-2-thiophen-2-ylmethyl-1H-benzoimidazole-5-carboxylic acid {(S)-1-[5-(4-methoxy-benzyl)-2,5-diaza-bicyclo[2.2.1]heptane-2-carbonyl]-3-methyl-butyl}-amide]	9290
CCC(CC)n1c(Cc2cccs2)nc2cc(C(=O)N[C@@H](CC(C)C)C(=O)NC3CCN(c4ncccn4)CC3)ccc21 [Example 352, 1-(1-Ethyl-propyl)-2-thiophen-2-ylmethyl-1H-benzoimidazole-5-carboxylic acid [(S)-3-methyl-1-(1-pyrimidin-2-yl-piperidin-4-ylcarbamoyl)-butyl]-amide]	2980
CCC(CC)n1c(Cc2cccs2)nc2cc(C(=O)N[C@@H](CC(C)C)C(=O)NCC3CN(CC(C)C)CCO3)ccc21 (stereo partly drawn) [Example 355, 1-(1-Ethyl-propyl)-2-thiophen-2-ylmethyl-1H-benzoimidazole-5-carboxylic acid {(S)-1-[(4-isobutyl-morpholin-2-ylmethyl)-carbamoyl]-3-methyl-butyl}-amide]	1520
CCC(CC)n1c(Cc2cccs2)nc2cc(C(=O)N[C@@H](CC(C)C)C(=O)NCC3CN(Cc4ccc(F)cc4)CCO3)ccc21 (stereo partly drawn) [Example 356, 1-(1-Ethyl-propyl)-2-thiophen-2-ylmethyl-1H-benzoimidazole-5-carboxylic acid ((S)-1-{[4-(4-fluoro-benzyl)-morpholin-2-ylmethyl]-carbamoyl}-3-methyl-butyl)-amide]	4260

More lines, now with the values ahead:

EC50 [nM]	SMILES
412	CCC(CC)n1c(Cc2cccs2)nc2cc(C(=O)N[C@@H](CC(C)C)C(=O)N3CCC(N4CCOCC4)CC3)ccc21 [Example 334, 1-(1-Ethyl-propyl)-2-thiophen-2-ylmethyl-1H-benzoimidazole-5-carboxylic acid [(S)-3-methyl-1-(4-morpholin-4-yl-piperidine-1-carbonyl)-butyl]-amide]
384	CCC(CC)n1c(Cc2cccs2)nc2cc(C(=O)N[C@@H](CC(C)C)C(=O)N3CCC(N4CCCCCC4)CC3)ccc21 [Example 335, 1-(1-Ethyl-propyl)-2-thiophen-2-ylmethyl-1H-benzoimidazole-5-carboxylic acid [(S)-1-(4-azepan-1-yl-piperidine-1-carbonyl)-3-methyl-butyl]-amide]
331	CCC(CC)n1c(Cc2cccs2)nc2cc(C(=O)N[C@@H](CC(C)C)C(=O)NC3CCN(CC(C)C)CC3)ccc21 [Example 337, 1-(1-Ethyl-propyl)-2-thiophen-2-ylmethyl-1H-benzoimidazole-5-carboxylic acid [(S)-1-(1-isobutyl-piperidin-4-ylcarbamoyl)-3-methyl-butyl]-amide]
444	CCC(CC)n1c(Cc2cccs2)nc2cc(C(=O)N[C@@H](CC(C)C)C(=O)NCCCN3CCCC(C)C3)ccc21 (stereo partly drawn) [Example 339, 1-(1-Ethyl-propyl)-2-thiophen-2-ylmethyl-1H-benzoimidazole-5-carboxylic acid {(S)-3-methyl-1-[3-(3-methyl-piperidin-1-yl)-propylcarbamoyl]-butyl}-amide]
185	CCC(CC)n1c(Cc2cccs2)nc2cc(C(=O)N[C@@H](CC(C)C)C(=O)NC3CCN(CC)CC3)ccc21 [Example 340, 1-(1-Ethyl-propyl)-2-thiophen-2-ylmethyl-1H-benzoimidazole-5-carboxylic acid [(S)-1-(1-ethyl-piperidin-4-ylcarbamoyl)-3-methyl-butyl]-amide]
918	CCC(CC)n1c(Cc2cccs2)nc2cc(C(=O)N[C@@H](CC(C)C)C(=O)NCCCN3CCN(Cc4ccccc4)CC3)ccc21 [Example 341, 1-(1-Ethyl-propyl)-2-thiophen-2-ylmethyl-1H-benzoimidazole-5-carboxylic acid {(S)-1-[3-(4-benzyl-piperazin-1-yl)-propylcarbamoyl]-3-methyl-butyl}-amide]
419	CCC(CC)n1c(Cc2cccs2)nc2cc(C(=O)N[C@@H](CC(C)C)C(=O)NCC3CN(C)CCO3)ccc21 (stereo partly drawn) [Example 343, 1-(1-Ethyl-propyl)-2-thiophen-2-ylmethyl-1H-benzoimidazole-5-carboxylic acid {(S)-3-methyl-1-[(4-methyl-morpholin-2-ylmethyl)-carbamoyl]-butyl}-amide]
809	CCC(CC)n1c(Cc2cccs2)nc2cc(C(=O)N[C@@H](CC(C)C)C(=O)N3CC4CC3CN4CC)ccc21 (stereo partly drawn) [Example 347, 1-(1-Ethyl-propyl)-2-thiophen-2-ylmethyl-1H-benzoimidazole-5-carboxylic acid [(S)-1-(5-ethyl-2,5-diaza-bicyclo[2.2.1]heptane-2-carbonyl)-3-methyl-butyl]-amide]
787	CCC(CC)n1c(Cc2cccs2)nc2cc(C(=O)N[C@@H](CC(C)C)C(=O)NCC3CCN(C(C)c4ccccc4)C3)ccc21 (stereo partly drawn) [Example 353, 1-(1-Ethyl-propyl)-2-thiophen-2-ylmethyl-1H-benzoimidazole-5-carboxylic acid ((S)-3-methyl-1-{[1-(1-phenyl-ethyl)-pyrrolidin-3-ylmethyl]-carbamoyl}-butyl)-amide]
998	CCCC1CCN(CCCNC(=O)[C@H](CC(C)C)NC(=O)c2ccc3c(c2)nc(Cc2cccs2)n3C(CC)CC)CC1 [Example 354, 1-(1-Ethyl-propyl)-2-thiophen-2-ylmethyl-1H-benzoimidazole-5-carboxylic acid {(S)-3-methyl-1-[3-(4-propyl-piperidin-1-yl)-propylcarbamoyl]-butyl}-amide]
